In series [1] the test system is Rat Retinal Ischemia Reperfusion Model. In words: Protecting effect of retinal nerve in rat retinal ischemia reperfusion model (electroretinogram measurement). Format: in vivo. Particulars: SD rats, 30 min retinal ischemia; 10 mg/kg orally twice a day for 14 days from 2 days after reperfusion; ERG about 1 hour after final administration; distilled water control group 35%. How it is done:
A rat retinal ischemia reperfusion model was prepared by a partially modified method of Steven Roth et al. (Experimental Eye Research, Vol. 65, pp. 771-779, 1997).
As experimental animals, SD rats (SPF, 9-week-old, male, approximately 300 g of body weight) were used. Such rats were anesthetized with halothane (introduction: 4%; retention: 2%; gas composition: 70% air+30% oxygen; gas flow rate: 2 L/min). The rat was placed on a fixing plate with the left body side upward. The skin located between the external acoustic foramen and the external canthus on the left side was incised, and the skin-incised portion was held with a hook. The temporal muscle was burned out with a bipolar coagulator (output: 4.5 W), and it was detached from the cranial bone and the mandibular arch. […]
ERG was measured in accordance with the method of Kawakami et al. (Gifu-dai Iki, Vol. 48, pp. 166-175, 2000). […] The obtained waveform was swept on a memory oscilloscope and then recorded by a thermal array recorder. […] ERG of the ischemic eye was evaluated as a ratio to the value of normal control eye. ERG was measured after adaptation to darkness at 2 days after retinal ischemia reperfusion, and at approximately 1 hour after the final administration.

Molecules are shown by their SMILES.

The compound `Cl.OC1CN(CCOCCc2ccc3sccc3c2)C1` yielded a melting point of 101 to 102 °C. With `O=C(O)/C=C\C(=O)O.OC1CN(CCCOCCc2ccc3sccc3c2)C1` [1-(3-(2-(1-benzothiophene-5-yl)ethoxy)propyl)-3-azetidinol maleate], in series [1], the “ratio of the ERG amplitude value of the ischemic eye to the normal control eye” value turned out to be 65%.

The values are drawn from patent US8067406B2, “Preventive/remedy for retinal nerve diseases containing alkyl ether derivatives or salts thereof” (Toyama Chemical Co., Ltd., priority 2003, dated 2011).
